For 78 compounds, RP-LC retention time results are on record in the METLIN SMRT retention time set (Domingo-Almenara et al. 2019).

Each structure is given as a SMILES string.

This data set in a line: gradient 5% acetonitrile 3 min, to 50% in 2 min, to 85% in 15 min, held 3 min, 100 µL/min. To be noted: column: Zorbax Extend-C18 2.1 x 50 mm; eluents: water / acetonitrile, 0.1% formic acid. An outline of the steps: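 Over 3 months, pure standards in mixtures of ~100 molecules were run by HPLC coupled to a quadrupole time-of-flight mass spectrometer in positive and negative ionization mode. The column was a Zorbax Extend-C18 (2.1 × 50 mm, 1.8 μm) at 100 μL/min, eluted with water and acetonitrile each holding 0.1% formic acid, with 40 μL dead and 900 μL dwell volumes. Retention time was determined from adduct peaks chosen by software and checked manually.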
Compound `O=C(CCc1cccc2[nH]ccc12)NCc1ccc(N2CCCCC2)cc1` yielded an RP-LC retention time of 612 s. Regarding `CCn1ccc2sc(C)c(C(=O)NCc3cccc(F)c3)c2c1=O`, the RP-LC retention time was 822 s. The compound `CNC(=O)C1CCN(Cc2cc3ccccc3n2Cc2cccc(Cl)c2)CC1` had an RP-LC retention time of 683 s. In the case of `O=C(NCc1ccccc1Cl)c1ccc(NC(=O)C2CCC2)cc1N1CCOCC1`, the RP-LC retention time turned out to be 873 s.

`CCCn1c(=O)sc2cc(S(=O)(=O)N3CCC(C(=O)NCc4ccc(C)o4)CC3)ccc21` yielded an RP-LC retention time of 960 s. Compound `Cn1c(=O)c2c(ncn2CC(=O)N2CCC(Cc3nc(C4CCOCC4)no3)CC2)n(C)c1=O` gave an RP-LC retention time of 610 s.

Consider `COc1ccc(C2(C(=O)NCc3ccc4c(c3)ncn4C(C)C)CC2)cc1`, for which the RP-LC retention time turned out to be 678 s.

For `COc1ccc(-n2c(CN3CCN(C(=O)NC(C)C)CC3)nc3cccnc32)cc1`, the RP-LC retention time was found to be 595 s.

`CCOc1ccc(CNC(=O)c2cn3c(n2)CCCC3)cc1` gave an RP-LC retention time of 606 s. Compound `Cc1ccc(N2CC(c3nc(-c4ccc5c(c4)OCO5)no3)CC2=O)cc1C` (stereo not drawn) showed an RP-LC retention time of 911 s.

For `COCC1CN(C(=O)c2ccc(Cc3c(C)noc3C)o2)CC12CCNCC2` (stereo not drawn), the RP-LC retention time is 586 s. For `O=C(c1ccccc1Br)N1CCN(c2cc(-c3ccc(Cl)cc3)[nH]n2)CC1`, the RP-LC retention time was determined as 913 s.

The compound `CCOc1ccc(C(=O)N2CCC3(CC2)NC(=O)c2cc(F)ccc2N3CC)cc1` came in with an RP-LC retention time of 836 s.

`Cc1cccc(NC(=O)Cn2cnc(-c3nc(C)cs3)c2)c1`: the RP-LC retention time was determined as 687 s. The compound `CCOc1cccc(-c2noc(Cn3c(=O)n(-c4ccc(C)cc4)c(=O)c4sccc43)n2)c1` came in with an RP-LC retention time of 1090 s. Compound `CCc1cccc(NC(=O)C2CCCN(S(=O)(=O)c3c[nH]c(C(=O)N4CCCCCC4)c3)C2)c1` (stereo not drawn) showed an RP-LC retention time of 911 s. To `CN(C)c1nc2ncn3c(=O)n(CC(=O)Nc4ccc(F)c(F)c4)nc3c2s1` belongs 696 s; to `Cc1nc(NC(=O)N2CCC[C@H]2C(N)=O)sc1-c1csc(C(C)(C)C)n1`, 776 s. `CCCc1ccc(S(=O)(=O)Nc2ccc3nc(S(=O)(=O)CCC)sc3c2)cc1`: the RP-LC retention time came out at 1080 s. Turning to `O=C(O)c1nnn(-c2ccc(Cl)cc2)c1-c1ccncc1`, the RP-LC retention time was determined as 663 s. As for `Cc1ccnc(NC(=O)Cn2ccc3ccc(-c4nnc(C)o4)cc32)c1`, the RP-LC retention time amounted to 674 s. `COc1ccc(N2CC(C(=O)N3CCC(C(=O)NC4CCS(=O)(=O)C4)CC3)CC2=O)cc1` (stereo not drawn) had an RP-LC retention time of 603 s. For `CCCCc1ccc(Nc2c(C(=O)N3CCSCC3)cnc3nc(C)ccc23)cc1`, the RP-LC retention time came to 723 s. For `O=C(C1CCN(S(=O)(=O)c2cccc3nonc23)CC1)N1CCc2ccccc2C1`, the RP-LC retention time was found to be 913 s.

Compound `Cc1ccoc1C(=O)N1CCC2(CCC2O)CC1` (stereo not drawn) returned an RP-LC retention time of 645 s.

`CCCNC(=O)N1CCN(Cc2nc3cccnc3n2-c2ccc(CC)cc2)CC1` registered an RP-LC retention time of 641 s. Compound `Cc1ccc(CN2CCCn3nc(C(=O)NCc4ccc(C)o4)cc3C2=O)cc1` yielded an RP-LC retention time of 875 s. Regarding `COCCN1C(=O)CCC2(CNC(=O)c3cnc(C)cn3)CCC=C12` (stereo not drawn), the RP-LC retention time was found to be 676 s. On to `COc1ccc(Cc2nc3nccc(-c4cccc(OC)c4)n3n2)cc1`, for which the RP-LC retention time was 887 s. `COc1ccc(OC)c(CNC(=O)Cn2ccc3ccc(-c4nnc(C)o4)cc32)c1` gave an RP-LC retention time of 770 s. To `COc1ccc(Cl)cc1NC(=O)CSc1ccc(N2CCCC(C(=O)NC3CC3)C2)nn1` (stereo not drawn) belongs 753 s; to `O=C(NC1CCCC1)C1CCCN(c2nc3ccsc3c(=O)n2Cc2ccccc2)C1` (stereo not drawn), 895 s; to `CCc1ccc(NC(=O)N2CCC3(CC2)NC(=O)c2cc(C)ccc2N3C)cc1`, 874 s.

For `Cc1ccc(-c2nc3ccc(Cl)cn3c2Nc2ccccc2C)cc1`, the RP-LC retention time amounted to 904 s. Compound `CC(CNC(=O)CCS(=O)(=O)c1ccc2c(c1)CCN2C(=O)C1CC1)c1ccccc1` (stereo not drawn) registered an RP-LC retention time of 840 s.

`Cc1nn(CCC(=O)Nc2ccccc2Cl)c(=O)c2nn(-c3ccccc3)c(C)c12`: the RP-LC retention time came out at 827 s. `O=C(c1nc(-c2ccnc(N3CCCCC3)c2)no1)N1CCC2(CC1)OCCO2` registered an RP-LC retention time of 673 s. To `COc1ccc([N+](=O)[O-])cc1NC(=O)Cc1ccc(S(C)(=O)=O)cc1` belongs 695 s; to `O=C1N=C(N2CCN(Cc3ccc(F)cc3)CC2)S/C1=C\c1cccc(O)c1`, 585 s. Then `CCn1c(=O)c2ccccc2n(Cc2nc(-c3ccc4c(c3)OCO4)no2)c1=O`, with 960 s; and `COc1cccc(CNC(=O)C2(C)CCN(C(=O)Nc3ccccc3C(F)(F)F)CC2)c1`, with 806 s. As for `COc1cc(-c2nc(-c3ccc4c(c3)oc(=O)n4C)no2)cc(OC)c1OC`, the RP-LC retention time is 985 s. Regarding `COc1ccc(-c2cc(-c3ccccc3)nc3c2CC(=O)Nc2ccccc2-3)cc1OC`, the RP-LC retention time worked out at 1100 s. As to `c1ccc(-c2cc(N3CCN(c4ccccn4)CC3)nn2-c2ccccc2)cc1`, the RP-LC retention time is 831 s. On to `COc1cc(NC(=O)N2CCN(CCn3c(C(F)(F)F)nc4cccnc43)CC2)cc(OC)c1`, for which the RP-LC retention time stood at 642 s. For `Cc1nc(-c2ccncc2)nc2c1CCC(=O)N2Cc1ccccn1`, the RP-LC retention time came out at 559 s. Consider `CC(C)CCNC(=O)C1CCCN(C(=O)c2cc(-c3ccncc3)n[nH]2)C1` (stereo not drawn), for which the RP-LC retention time worked out at 591 s.

The compound `CCSc1nc2ccc(NS(=O)(=O)Cc3cc(C)ccc3C)cc2s1` yielded an RP-LC retention time of 1150 s. Compound `COC(=O)c1ccccc1NC(=O)CCCn1c(=O)c2cccn2c2ccc(Br)cc21` returned an RP-LC retention time of 1120 s. `CCCCS(=O)(=O)N1CCC(C2CCN(C(=O)NC)CC2)C1` (stereo not drawn) yielded an RP-LC retention time of 682 s. Then `COc1cccc(N2CCN(c3ccnc(SCC(=O)Nc4ccc(F)c(Cl)c4)n3)CC2)c1`, with 806 s. Turning to `Cn1c(=O)n([C@@H]2CCN(C(=O)C3CCC3)C2)c2ncccc21`, the RP-LC retention time came to 639 s.

`OCCNCc1ccc(-c2ccccc2F)o1`: the RP-LC retention time is 596 s. `CCOC(=O)c1c(C)[nH]c(CCC(=O)NCCc2c(C)noc2C)c1C`: the RP-LC retention time was found to be 729 s. To `O=C(CN1C(=O)CCc2cc(Br)ccc21)N1CCN(c2ccccc2)CC1` belongs 913 s; to `CCCN1C(=O)CCc2cc(NC(=O)c3ccn(CC)n3)ccc21`, 756 s. On to `O=C(Cn1cccc1-c1nc(-c2ccccc2)no1)N1CCc2ccccc21`, for which the RP-LC retention time is 1110 s. In turn, `CCOc1cccc(CNS(=O)(=O)c2cc3c(s2)CCN(C(=O)C2CCC2)C3)c1` yielded an RP-LC retention time of 940 s.

Regarding `CC1=C(C(=O)N2CCOCC2)C(c2c(F)cccc2Cl)C2=C(CC(C)(C)CC2=O)N1` (stereo not drawn), the RP-LC retention time is 690 s. `CC(C)c1noc(C2(NC(=O)C3CCCC3)CCCCC2)n1` yielded an RP-LC retention time of 968 s. On to `Cc1ccc(C)c(N2CCN(c3ccnc(SCC(=O)Nc4ccc(Cl)cc4F)n3)CC2)c1`, for which the RP-LC retention time stood at 1140 s. Compound `O=C(NC1CC1)C1CCN(c2nc3ccsc3c(=O)n2Cc2ccccc2)CC1` came in with an RP-LC retention time of 741 s. To `CCOc1ccc(NC(=O)c2sc(N3CCCC3=O)nc2CC)cc1` belongs 875 s.

`COc1cc(C)c(Cc2cnc(N)nc2N)cc1OC` displayed an RP-LC retention time of 623 s. To `COc1ccc(-c2ncc3c(n2)CCN(C(=O)c2cccc(Br)c2)C3)cc1` belongs 1020 s; to `COc1cccc(C(=O)NC2(C(F)(F)F)C(=O)N(C3CCCC3)C(C)=C2C(C)=O)c1` (stereo not drawn), 964 s. On to `CCn1cnc(S(=O)(=O)N2CCC(C(=O)N3CCN(c4cc(Cl)ccc4C)CC3)CC2)c1`, for which the RP-LC retention time was 916 s. `Cc1cc(NC(=O)CN2CCc3[nH]c4c(C)ccc(C)c4c(=O)c3C2)ccc1F` showed an RP-LC retention time of 666 s. In turn, `CCCNC(=O)Cc1c(C)nc2nc(-c3ccc(C(C)(C)C)cc3)nn2c1C` registered an RP-LC retention time of 920 s. In the case of `O=c1c2ccccc2nc2n1CCC2O` (stereo not drawn), the RP-LC retention time stood at 567 s. The compound `O=C(CN1C(=O)CCC1=O)Nc1ccc2c(c1)CN(C(=O)c1cccs1)CC2` displayed an RP-LC retention time of 630 s. `O=C(Nc1cc(F)ccc1F)Nc1c(-c2ccc(F)cc2)nc2ccccn12`: the RP-LC retention time amounted to 706 s.

Consider `O=C(CN1CCN(c2ncccn2)CC1)N1c2ccccc2Sc2ccccc21`, for which the RP-LC retention time was 602 s. Turning to `CCc1ccccc1NC(=O)Cn1c(CC)nc2c(c1=O)CN(Cc1ccccc1)CC2`, the RP-LC retention time was determined as 666 s.

Consider `CCc1ccc(CNC(=O)c2cc3n(n2)CC(C)(C(=O)NCCC(C)C)N(C)C3=O)cc1` (stereo not drawn), for which the RP-LC retention time was determined as 860 s.

`CCc1ccccc1NC(=O)C(C)n1cnc2nc(N3CCCCC3)ncc2c1=O` (stereo not drawn): the RP-LC retention time was 882 s. `O=C(NCc1cccs1)c1ccc2c(c1)CC(=O)N2Cc1ccccc1` gave an RP-LC retention time of 817 s.

In turn, `Cc1ccc(Sc2nccnc2N2CCCC(C(=O)Nc3ccc(C)c(C)c3)C2)cc1` (stereo not drawn) registered an RP-LC retention time of 1290 s.
